Test results reported in US5759768A, “Assays for factors affecting circularization of DNA, assays for factors affecting DNA integration, factors, and uses thereof” (priority 1995, dated 1998).
Like-named read-outs stand apart in the source and are kept apart here.

Key:
Type in all cases: biochemical, HIV-1
[1] = test system: linear viral DNA (circularization)
Procedure: (§1) The chronically HIV-1 infected Molt IIIB human T cell line (HTLV IIIB virus strain) was the source of virus for cell-free infections. This human T cell line constitutively produces a low level of the HTLV-111B strain of HIV-1. Culture supernatant containing a high concentration of virus was prepared by incubating 300×10^6 Molt IIIB cells in 50 ml fresh RPMI 1640 medium containing 20% fetal calf serum and 10 ng of phorbol 12-myristate 13-acetate per ml for 20-24 hours. […] Cytoplasmic extracts (3 ml) were prepared 4-4.5 hours post-infection, by a modification of the procedure of Brown et al., Cell 49: 342-356 (1987).
(§2) At specified times after infection, cells were washed twice with buffer K (20 mM Hepes, pH 7.4, 150 mM KCl, 5 mM MgCl2, 1 mM dithiothreitol, […]) and then lysed at a concentration of 33×10^6 cells per ml in the same buffer containing 0.025% digitonin or 0.025% Triton X-100. Cells were extracted for 10 minutes at room temperature, and the lysate was centrifuged at 1000×g for 3 minutes, and is referred to as "cytoplasmic extract". Cytoplasmic extract was the source of viral DNA for analyses in the assays described below. The pellet from the initial low-speed centrifugation contained cell debris and intact nuclei and is called the "nuclear pellet". Cell extracts from uninfected SupT1 cells were prepared in the same manner.
Viral DNA present in cytoplasmic extracts was deproteinated by incubation with proteinase K (1 mg/ml)/10 mM EDTA/0.5% SDS for 1 hour at 55° C. Samples were extracted successively with phenol/chloroform [1:1 (vol/vol)] and chloroform. DNA was ethanol-precipitated, washed with 70% ethanol, resuspended in 10 mM Tris.HCI (pH 7.4), and treated with RNase A (20 μpg/ml)for 1 hour at […]. before analysis by agarose gel electrophoresis and Southern blotting.
(§3) DNA samples were layered on 0.8% agarose gels and electrophoresed at 1 V/cm for 15 hour in Tris/acetate/EDTA buffer. After electrophoresis, DNA was blotted by capillary action onto nitrocellulose (0.45 μm, Schleicher & Schuell).
Cell extracts were prepared from cells four to five hours after infection with HIV-1, using the above-described methods to yield fully functional viral preintegration complexes. […] In all cases, a HIV-1 LTR-containing DNA fragment was used as a hybridization probe. Therefore, only LTR-containing DNA fragments are detected. […] Lane 5: Unintegrated viral DNA prepared by Hirt extraction of SupT1 cells infected 24 hours earlier with concentrated HIV-1. […] Viral DNA was purified from extracts incubated with 1 mM ATP for 15 minutes (lanes 1 and 4), with 1 mM ATP for 45 minutes (lanes 3 and 6), or with 1 mM ATPγS for 45 minutes (lanes 2 and 5). Lanes 1-3: uncut viral DNA; lanes 4-6: viral DNA was cut with SalI prior to electrophorosis. Lane 7: linear viral DNA, prepared from untreated extracts was digested with SalI prior to electrophorosis. Lane 8: unintegrated viral DNA prepared by Hirt extraction of infected cells, as described with respect to FIG. 14, digested with SalI prior to electrophoresis. […] Lanes 1-3. Viral DNA prepared from extracts treated with 1 mM ATP for 15 minutes, 30 minutes and 45 minutes, respectively. Lane 4: Viral DNA prepared from extract treated with 1 mM ATPγS for 45 minutes. Lanes 5-7: products of reactions shown in lanes 1-3, respectively, digested with SalI and PstI prior to electrophoresis. Lane 8: SalI, PstI digestion of viral DNA prepared from extract treated with 1 mM ATP for 90 minutes. Lane 9: SalI, PstI digestion of reaction products shown in lane 4. Lane 10: SalI, PstI digestion of unintegrated viral DNA prepared by Hirt extraction of infected cells.

[2] = test system: purified linear viral DNA; experiment: Circularization of purified linear viral DNA in cytoplasmic extracts of uninfected SupT1 cells; conditions: 1 mM, 37° C., 45 min
Procedure: Further evidence of a role for host proteins in the formation of the 1-LTR and simple 2-LTR circular forms of viral DNA was obtained by testing the ability of uninfected cell extracts to mediate the circularization of purfied viral DNA. Linear viral DNA was prepared from cytoplasmic extracts of uninfected cells by SDS-proteinase K treatment and phenol extraction. The purfied DNA was added to cytoplasmic extracts prepared form uninfected SupT1 cells, in the presence or absence of added ATP.
Linear viral DNA was purified from cytoplasmic extracts of cells 4 hours post-infection as described above. In FIG. 22, a purified linear viral DNA was added to cytoplasmic extracts from uninfected SupT1 cells and incubated at 37° C. for 45 minutes. The uninfected SupT1 cells used for the preparation of extracts were either untreated (lanes 3-11) or cultured in the presence of 10 ng/ml phorbol 12-myristate 13-acetate for six hours prior to extraction (lane 2). […] Lanes 2-11: reaction products following incubation of purified linear viral DNA in uninfected extracts containing 1 mM ATP (lanes 2 and 3), nothing added (lane 4), 1 mM dATP (lane 5), 1 mM UTP (lane 6), 1 mM CTP (lane 7), 1 mM GTP (lane 8), 1 mM ATPγS (lane 9), or 1 mM ADP (lane 10). Lane 11: uninfected SupT1 cell extract was treated with proteinase K for 10 minutes at 37° C., then linear viral DNA was added and incubation continued for 45 minutes. In FIG. 23, lanes 1, 2, 4 and 5: purified linear viral DNA was incubated with T4 DNA ligase (lane 1), T4 polynucleotide kinase and T4 DNA ligase (lane 2), Klenow fragment of E. coli DNA polymerase I and T4 DNA ligase […], or Klenow fragment, T4 polynucleotide kinase, and T4 DNA ligase (lane 4). Lanes 3 and 6: in vitro circularization reaction products generated in cell extracts, included as size standards. Lane 3: cytoplasmic extracts from infected cells were incubated with […] for 45 minutes; lane 6: purified linear viral DNA was incubated with cytoplasmic extract from uninfected SupT1 cells in the presence of 1 mM ATP for 45 minutes. The possibility that a host DNA ligase was responsible for the formation of the simple 2-LTR circles was examined by testing the ability of phage T4 ligase to catalyze the circularization of linear viral DNA. […] Restriction endonuclease analysis of the reaction products formed in the presence of both Klenow fragment and T4 DNA ligase confirmed the formation of new 2-LTR junctions (not shown). […] This observation is consistent with previous reports that linear viral DNA prepared from cells infected with the murine leukemia virus [Fujiwara and Mizuuchi, Cell, 54:497-504 (1988) and HIV-1 [Pauza, Virology, 179:886-887 (1990)] consists of a mixture of molecules that are either blunt-ended or recessed by two nucleotides at each 3'-terminus. The removal of the two terminal nucleotides is mediated by the viral integrase as a necessary step in the process of integration [Roth et al., Cell 58: 47-54 (1989)]. […] This would explain the requirement of DNA polymerase for the subsequent joining of the ends of viral DNA by DNA ligase.

[3] = test system: viral DNA integrated into .phi.X174 target DNA; conditions: for inhibition of integration: 90 min incubation
Procedure: as §1, §2, §3
In Vitro Integration Reaction
Pst I-linearized (replicative form III) .phi.X174 DNA, relaxed circular (replicative form II) .phi.X174 DNA, and single-stranded M13 DNA were used as targets for the in vitro integration of viral DNA. Target DNA was added to cytoplasmic extracts of intected SupT1 cells to a concentration of 10 μg/ml, and reaction mixtures were incubated at […]. Reactions, were stopped by the addition of SDS and proteinase K.
Cytoplasmic extracts prepared from SupT1 cells 4 hours after infection with HIV-1 were incubated with exogenously added target DNA under integration reaction conditions. Products of the reactions were analyzed by Southern blot hybridization. The time course of integration into linear .phi.X174 DNA target was determined. Target DNA was added to the extract and the reaction was stopped after 0,5,15,30, or 45 minutes of incubation at 37° C. (FIG. 11, lanes a-e, respectively). Purified linear viral DNA was incubated for 1 hour at 37° C. with cytoplasmic extract prepared from uninfected SupT1 cells (lane f). […] Arrows in the Figure indicate the positions of viral DNA products. L, linear viral DNA:I, integration product. Integration was detected by the shift of linear viral DNA on Southern blots from the characteristic 9.7-kilobase (kb) position to a position corresponding to viral DNA plus target DNA.

Compound: Nc1ncnc2c1ncn2[C@@H]1O[C@H](COP(=O)(O)OP(=O)(O)O)[C@@H](O)[C@H]1O [ADP]
- circular DNA forms observed ([1]; 1 mM, 37° C., 45 min): No circular DNA forms were observed

Compound: Nc1ncnc2c1ncn2[C@@H]1O[C@H](COP(=O)(O)O)[C@@H](O)[C@H]1O [AMP]
- circular DNA forms observed ([1]; 1 mM, 37° C., 45 min): No circular DNA forms were observed

Compound: Nc1ccn([C@@H]2O[C@H](COP(=O)(O)OP(=O)(O)OP(=O)(O)O)[C@@H](O)[C@H]2O)c(=O)n1 [CTP, cytosine triphosphate]
- 1-LTR circles from purified linear viral DNA [2]: able to induce the formation of 1-LTR circles
- 2-LTR circles from purified linear viral DNA [2]: failed to induce the formation of detectable 2-LTR circles
- induction of 1-LTR circular form [1]: induced the formation of only a small amount of the 1-LTR circular form
- induction of 2-LTR circles [1]: induced the formation of 2-LTR circles

Compound: Nc1nc2c(ncn2[C@@H]2O[C@H](COP(=O)(O)OP(=O)(O)O)[C@@H](O)[C@H]2O)c(=O)[nH]1 [GDP]
- circular DNA forms observed ([1]; 1 mM, 37° C., 45 min): No circular DNA forms were observed

Compound: Nc1nc2c(ncn2[C@@H]2O[C@H](COP(=O)(O)OP(=O)(O)OP(=O)(O)O)[C@@H](O)[C@H]2O)c(=O)[nH]1 [GTP, guanosine triphosphate]
- induction of 1-LTR circular form ([1]; 1 mM, 37° C., 45 min): induced the formation of only a small amount of the 1-LTR circular form
- induction of 2-LTR circles ([1]; 1 mM, 37° C., 45 min): induced the formation of 2-LTR circles

Compound: [Cl-].[Na+] [NcCl]
- Relative activity, % of standard [3]: 100 % of standard

Compound: O=c1ccn([C@@H]2O[C@H](COP(=O)(O)OP(=O)(O)OP(=O)(O)O)[C@@H](O)[C@H]2O)c(=O)[nH]1 [UTP]
- 1-LTR circles from purified linear viral DNA [2]: able to induce the formation of 1-LTR circles
- 2-LTR circles from purified linear viral DNA [2]: failed to induce the formation of detectable 2-LTR circles
- induction of 1-LTR circular form ([1]; 1 mM, 37° C., 45 min): induced the formation of only a small amount of the 1-LTR circular form
- induction of 2-LTR circles ([1]; 1 mM, 37° C., 45 min): induced the formation of 2-LTR circles

Compound: Nc1ncnc2nc[nH]c12 [adenine]
- circular DNA forms observed ([1]; 1 mM, 37° C., 45 min): No circular DNA forms were observed

Compound: Nc1ncnc2c1ncn2[C@@H]1O[C@H](CO)[C@@H](O)[C@H]1O [adenosine]
- circular DNA forms observed ([1]; 1 mM, 37° C., 45 min): No circular DNA forms were observed

Compound: CC[C@@]1(O)C(=O)OCc2c1cc1n(c2=O)Cc2cc3ccccc3nc2-1 [camptothecin]
- inhibition of integration ([3]; 5 μM): about 50%
- inhibition of integration ([3]; 50 μM): about 100%

Compound: Nc1ncnc2c1ncn2[C@@H]1O[C@H](CO)C[C@H]1O [cordycepin, 3'-deoxyadenosine]
- circular DNA forms observed ([1]; 1 mM, 37° C., 45 min): No circular DNA forms were observed

Compound: Nc1cc[nH]c(=O)n1 [cytosine]
- circular DNA forms observed ([1]; 1 mM, 37° C., 45 min): No circular DNA forms were observed

Compound: Nc1ncnc2c1ncn2[C@H]1C[C@H](O)[C@@H](COP(=O)(O)OP(=O)(O)OP(=O)(O)O)O1 [dATP, deoxyadenosine triphosphate]
- 1-LTR circles from purified linear viral DNA [2]: able to induce the formation of 1-LTR circles
- 2-LTR circles from purified linear viral DNA [2]: failed to induce the formation of detectable 2-LTR circles
- induction of both circular forms ([1]; 1 mM, 37° C., 45 min): induced both circular forms with an efficiency comparable to ATP

Compound: Nc1nc2c(ncn2[C@H]2CC[C@@H](COP(=O)(O)OP(=O)(O)OP(=O)(O)O)O2)c(=O)[nH]1 [dd-GTP]
- induction of 1-LTR circular form ([1]; 1 mM, 37° C., 45 min): unable to induce detectable amounts of the 1-LTR circular forms
- induction of 2-LTR circles ([1]; 1 mM, 37° C., 45 min): induced the formation of 2-LTR circles

Compound: Nc1ncnc2c1ncn2[C@H]1CC[C@@H](COP(=O)(O)OP(=O)(O)OP(=O)(O)O)O1 [ddATP, dideoxyadenesine triphosphate]
- induction of 1-LTR circular form ([1]; 1 mM, 37° C., 45 min): unable to induce detectable amounts of the 1-LTR circular forms
- induction of 2-LTR circles ([1]; 1 mM, 37° C., 45 min): induced the formation of 2-LTR circles

Compound: Nc1ccn([C@H]2CC[C@@H](COP(=O)(O)OP(=O)(O)OP(=O)(O)O)O2)c(=O)n1 [ddCTP]
- induction of 1-LTR circular form ([1]; 1 mM, 37° C., 45 min): unable to induce detectable amounts of the 1-LTR circular forms
- induction of 2-LTR circles ([1]; 1 mM, 37° C., 45 min): induced the formation of 2-LTR circles

Compound: Cc1cn([C@H]2CC[C@@H](COP(=O)(O)OP(=O)(O)OP(=O)(O)O)O2)c(=O)[nH]c1=O [ddTTP]
- induction of 1-LTR circular form ([1]; 1 mM, 37° C., 45 min): unable to induce detectable amounts of the 1-LTR circular forms
- induction of 2-LTR circles ([1]; 1 mM, 37° C., 45 min): induced the formation of 2-LTR circles

Compound: Nc1nc2nc[nH]c2c(=O)[nH]1 [guanine]
- circular DNA forms observed ([1]; 1 mM, 37° C., 45 min): No circular DNA forms were observed

Compound: Nc1nc2c(ncn2[C@@H]2O[C@H](CO)[C@@H](O)[C@H]2O)c(=O)[nH]1 [guanosine]
- circular DNA forms observed ([1]; 1 mM, 37° C., 45 min): No circular DNA forms were observed

Compound: O=c1cc[nH]c(=O)[nH]1 [uracil]
- circular DNA forms observed ([1]; 1 mM, 37° C., 45 min): No circular DNA forms were observed

Compound: alkaline phosphatase
- effect on the in vitro integration reaction ([3]; pretreatment of linear target DNA): no effect on the in vitro integration reaction
